Data as given in publication PMC4557804 (Journal of medicinal chemistry, 2015).
Where a name gives a salt, the structure may show the parent alone.

What was measured:
SphK1 [1] = target: T1, SphK1 (Homo sapiens, UniProt Q9NYA1); details: screen at 1 μM
SphK2 [2] = target: T2, SphK2 (Homo sapiens, UniProt Q9NRA0); details: screen at 1 μM
T2 sequence (Q9NRA0 1-654): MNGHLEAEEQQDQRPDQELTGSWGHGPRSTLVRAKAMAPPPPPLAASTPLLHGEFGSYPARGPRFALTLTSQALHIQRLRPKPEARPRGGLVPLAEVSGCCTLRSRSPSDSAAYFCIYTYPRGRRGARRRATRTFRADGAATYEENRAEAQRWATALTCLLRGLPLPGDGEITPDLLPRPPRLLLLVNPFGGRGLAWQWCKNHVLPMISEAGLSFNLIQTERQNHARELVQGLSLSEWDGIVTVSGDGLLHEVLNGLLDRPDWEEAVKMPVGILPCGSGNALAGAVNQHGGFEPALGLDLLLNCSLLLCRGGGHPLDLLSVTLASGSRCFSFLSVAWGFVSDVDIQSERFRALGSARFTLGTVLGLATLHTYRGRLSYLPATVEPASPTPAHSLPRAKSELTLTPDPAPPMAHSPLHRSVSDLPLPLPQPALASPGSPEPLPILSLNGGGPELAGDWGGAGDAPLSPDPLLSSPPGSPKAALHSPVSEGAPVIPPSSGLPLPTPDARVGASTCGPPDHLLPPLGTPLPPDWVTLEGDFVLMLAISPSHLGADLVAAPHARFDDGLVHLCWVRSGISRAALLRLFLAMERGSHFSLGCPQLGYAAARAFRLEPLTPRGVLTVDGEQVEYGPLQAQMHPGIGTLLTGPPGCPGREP

SphK2 [3] = target: T2, SphK2; assay: biochemical; details: for inhibition at 1 µM: read-out: inhibition at SphK2
SphK1 [4] = target: T1, SphK1; assay: biochemical; details: read-out: inhibition at SphK1
[5] = cited from earlier work

T1 sequence (Q9NYA1 whole entry, species assumed): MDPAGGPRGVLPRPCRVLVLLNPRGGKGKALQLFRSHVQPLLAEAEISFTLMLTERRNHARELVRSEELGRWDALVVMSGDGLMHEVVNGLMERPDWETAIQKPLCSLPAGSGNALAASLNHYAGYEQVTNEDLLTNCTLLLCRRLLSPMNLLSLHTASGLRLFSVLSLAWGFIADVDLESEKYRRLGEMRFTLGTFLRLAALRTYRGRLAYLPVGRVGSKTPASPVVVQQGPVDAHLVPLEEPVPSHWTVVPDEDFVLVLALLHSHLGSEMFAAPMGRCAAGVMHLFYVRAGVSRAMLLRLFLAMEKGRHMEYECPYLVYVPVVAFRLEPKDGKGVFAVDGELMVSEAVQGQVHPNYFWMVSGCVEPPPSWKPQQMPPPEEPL

SMILES	inhibitory activity at SphK1 (SphK1 [1])	inhibitory activity at SphK2 (SphK2 [2])	inhibition at 1 µM (SphK1 [4]) [%]	inhibition at 1 µM (SphK2 [3]) [%]	other results
CCCCCCCCc1ccc(-c2noc(CN(C)C(=N)N)n2)cc1.Cl [Compound 7b, 1-Methyl-1-((3-(4-octylphenyl)-1,2,4-oxadiazol-5-yl)methyl)-guanidine Hydrochloride]	inactive	inactive			
CCCCCCCCc1ccc(-c2noc([C@@H]3CCN3C(=N)N)n2)cc1 [Compound 7j, (S)-2-(3-(4-Octylphenyl)-1,2,4-oxadiazol-5-yl)azetidine-1-carboximidamide Hydrochloride]					Ki (SphK2 [3]): 1000 nM
CCCCCCCCCCc1ccc(NC(=O)[C@H]2CCCN2C(=N)N)cc1.O=C(O)C(F)(F)F [Compound 29b, (R)-Amino(2-((4-decylphenyl)carbamoyl)pyrrolidin-1-yl)-methaniminium 2,2,2-Trifluoroacetate]	inactive	inactive			
CCCCCCCCc1ccc(-c2noc(CNC(=N)N)n2)cc1 [Compound 7a, 1-((3-(4-Octylphenyl)-1,2,4-oxadiazol-5-yl)methyl)guanidine Hydrochloride]			< 20	< 20	
CCCCCCCCc1ccc(-c2noc(C3CN(C(=N)N)C3)n2)cc1.Cl [Compound 20a, Amino(3-(3-(4-octylphenyl)-1,2,4-oxadiazol-5-yl)azetidin-1-yl)methaniminium Chloride]	essentially inactive	essentially inactive			
CCCCCCCCc1ccc(-c2noc([C@@H](NC(=N)N)C(C)C)n2)cc1 [Compound 7d, (S)-1-(2-Methyl-1-(3-(4-octylphenyl)-1,2,4-oxadiazol-5-yl)-propyl)guanidine Hydrochloride]			< 20	< 20	
CCCCCCCCCCc1ccc(NC(=O)[C@@H]2CCCN2C(=N)N)cc1.O=C(O)C(F)(F)F [Compound 29a, (S)-Amino(2-((4-decylphenyl)carbamoyl)pyrrolidin-1-yl)-methaniminium 2,2,2-Trifluoroacetate]	inactive	inactive			
CCCCCCCCc1ccc(-c2noc([C@@H]3CCN(C(=N)N)C3)n2)cc1.Cl [Compound 20b, (R)-Amino(3-(3-(4-octylphenyl)-1,2,4-oxadiazol-5-yl)-pyrrolidin-1-yl)methaniminium Chloride]	essentially inactive	essentially inactive			
O=C(NCc1ccncc1)C12CC3CC(C1)CC(c1ccc(Cl)cc1)(C3)C2 [ABC294640]					S1P levels in vivo [5]: decreased
CCCCCCCCc1ccc(-c2noc([C@H](C)NC(=N)N)n2)cc1 [Compound 7c, (S)-1-(1-(3-(4-Octylphenyl)-1,2,4-oxadiazol-5-yl)ethyl)-guanidine Hydrochloride]			< 20	< 20	
CCCCCCCCc1ccc(CNC(=O)[C@@H]2CCCN2C(=N)N)cc1.O=C(O)C(F)(F)F [Compound 31, (S)-Amino(2-((4-octylbenzyl)carbamoyl)pyrrolidin-1-yl)-methaniminium 2,2,2-Trifluoroacetate]	no significant inhibitory effect	no significant inhibitory effect			
CCCCCCCCc1ccc(-c2noc([C@H](CO)NC(=N)N)n2)cc1 [Compound 7e, (S)-Amino((2-hydroxy-1-(3-(4-octylphenyl)-1,2,4-oxadiazol-5-yl)ethyl)amino)methaniminium Chloride]			< 20	< 20	
